Measurements from patent US6613932B1, “Prostaglandin derivatives” (Taisho Pharmaceutical Co., Ltd., priority 1999, dated 2003).

System: human vascular smooth muscle cells
Experiment: Determination of DNA synthesis inhibition activity (3H-thymidine intake) to human vascular smooth muscle cells
Type: cell-based
Details: for Growth inhibition rate (per cent to control): 1 × 10^−5 M compound added, 3H-thymidine intake after culturing 24 hours, compared with vehicle-treated group as control; for inhibiting activity on the growth of human vascular smooth muscle cells: summary in words of Table 1 (1 × 10^−5 M)
Procedure: Experiment [Determination of DNA synthesis inhibition activity of PGE1 derivatives to human vascular smooth muscle cells]
On a 24-well plate (manufactured by Corning Co.), 1×10^4 cells/well of quintic culture cells of vascular cells derived from normal human aorta (produced by Kurabo Co.) were inoculated and cultured for 2 days. The medium was exchanged from the growth medium (SG2: produced by Kurabo Co.) to the basal medium (SB2: produced by Kurabo Co.), and cultured for 24 hours, to which was added the growth medium (SG2) containing an ethanol solution of the test compound. ^3H-Thymidine (produced by Daiichi Chemicals Co.) was added in an amount of 0.01 mci/well and, after culturing for 24 hours, the cultured supernatant was removed by suction, followed by washing with a phosphate buffer solution (PBS). 5% Trichloroacetic acid (TCA) was added and, after allowing to stand at 4° C. for 20 minutes, the mixture was washed once with TCA. The mixture was washed with PBS, and dissolved in 0.5 M aqueous potassium hydroxide solution. Intake of ^3H-thymidine was determined using 20 μl of the aqueous potassium hydroxide solution dissolving the cells which incorporated ^3H-thymidine in the nucleus by means of a liquid scintillation counter (manufactured by Hewlett-Packard Co.).
Note: The test compounds were each used as an ethanol solution and compared with a vehicle-treated group as control.

CCCC1(C(O)C/C=C/C2C(SCCO)CC(=O)C2CCCCCCC(=O)OC)CCC1 [Compound 23, (11S,16S)-11,15-dideoxy-11-(2-hydroxyethylthio)-16-hydroxy-17,17-trimethylene-PGE1 methyl ester]
Growth inhibition rate (per cent to control): 91.5 per cent to control
inhibiting activity on the growth of human vascular smooth muscle cells: high inhibiting activity

CCCC1(C(O)C/C=C/C2C(SCC(N)C(=O)OC)CC(=O)C2CCCCCCC(=O)OC)CCC1 [Compound 55, (11S,16S)-11,15-dideoxy-11-[(2R)-2-methoxycarbonyl-2-aminoethylthio]-16-hydroxy-17,17-trimethylene-PGE1 methyl ester]
Growth inhibition rate (per cent to control): 94.3 per cent to control
inhibiting activity on the growth of human vascular smooth muscle cells: high inhibiting activity

CCCC1(C(O)C/C=C/C2C(SCCCO)CC(=O)C2CCCCCCC(=O)OC)CCC1 [Compound 41, (11R,16S)-11,15-Dideoxy-11-(3-hydroxypropylthio)-16-hydroxy-17,17-trimethylene-PGE1 methyl ester]
Growth inhibition rate (per cent to control): 93.2 per cent to control
inhibiting activity on the growth of human vascular smooth muscle cells: high inhibiting activity

CCCC1(C(O)C/C=C/C2C(SCCO)CC(=O)C2CCCC/C=C/C(=O)OC)CCC1 [Compound 29, (2E,11R,16R)-11,15-Dideoxy-11-(2-hydroxyethylthio)-16-hydroxy-17,17-trimethylene-2,3-didehydro-PGE1 methyl ester]
Growth inhibition rate (per cent to control): 100 per cent to control
inhibiting activity on the growth of human vascular smooth muscle cells: high inhibiting activity

CCCC1(C(O)C/C=C/C2C(SCC(N)C(=O)OC)CC(=O)C2CCCCCCC(=O)OC)CCC1 [Compound 54, (11R,16S)-11,15-Dideoxy-11-[(2R)-2-methoxycarbonyl-2-aminoethylthio]-16-hydroxy-17,17-trimethylene-PGE1 methyl ester]
Growth inhibition rate (per cent to control): 100 per cent to control
inhibiting activity on the growth of human vascular smooth muscle cells: high inhibiting activity

CCCC1(C(O)C/C=C/C2C(SCCO)CC(=O)C2CCCC/C=C/C(=O)OC)CCC1 [Compound 32, (2E,11R,16S)-11,15-Dideoxy-11-(2-hydroxyethylthio)-16-hydroxy-17,17-trimethylene-2,3-didehydro-PGE1 methyl ester]
Growth inhibition rate (per cent to control): 100 per cent to control
inhibiting activity on the growth of human vascular smooth muscle cells: high inhibiting activity
